According to PubChem BioAssay (NCI):
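Step 1: Grow cells in 96-well plates. Step 2: Expose to compound for 48 hours at 5 concentrations. Step 3: Interpolate endpoints linearly; if unreached, use highest concentration. Abbreviation: GI50, concentration required for 50% inhibition of growth. TGI is the concentration that stops growth completely.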

Assays:
Experiment in all cases: growth of human tumour cells (NCI), 48 h
HCT-116 colon = test system: HCT-116 colon
OVCAR-8 ovarian = test system: OVCAR-8 ovarian
A498 renal = test system: A498 renal
U251 CNS = test system: U251 CNS
K-562 leukemia = test system: K-562 leukemia
NCI-H23 lung = test system: NCI-H23 lung
NCI-H460 lung = test system: NCI-H460 lung
EKVX NSCLC = test system: EKVX NSCLC
NCI-H522 lung = test system: NCI-H522 lung
MDA-MB-231 breast = test system: MDA-MB-231 breast
RPMI-8226 leukemia = test system: RPMI-8226 leukemia
SK-OV-3 ovarian = test system: SK-OV-3 ovarian
OVCAR-5 ovarian = test system: OVCAR-5 ovarian
SF-539 CNS = test system: SF-539 CNS
M14 melanoma = test system: M14 melanoma
NCI/ADR-RES ovarian = test system: NCI/ADR-RES ovarian
SW-620 colon = test system: SW-620 colon
PC-3 prostate = test system: PC-3 prostate
UACC-257 melanoma = test system: UACC-257 melanoma
CCRF-CEM leukemia = test system: CCRF-CEM leukemia
CAKI-1 renal = test system: CAKI-1 renal
HCC-2998 colon = test system: HCC-2998 colon
A549 NSCLC = test system: A549 NSCLC
IGROV1 ovarian = test system: IGROV1 ovarian
LOX IMVI melanoma = test system: LOX IMVI melanoma
786-0 renal = test system: 786-0 renal
KM12 colon = test system: KM12 colon
SNB-75 CNS = test system: SNB-75 CNS
MCF7 breast = test system: MCF7 breast
SK-MEL-5 melanoma = test system: SK-MEL-5 melanoma
HS 578T breast = test system: HS 578T breast
SF-295 CNS = test system: SF-295 CNS
OVCAR-4 ovarian = test system: OVCAR-4 ovarian
HOP-62 NSCLC = test system: HOP-62 NSCLC
ACHN renal = test system: ACHN renal
HCT-15 colon = test system: HCT-15 colon
UO-31 renal = test system: UO-31 renal
RXF 393 renal = test system: RXF 393 renal
MOLT-4 leukemia = test system: MOLT-4 leukemia
MALME-3M melanoma = test system: MALME-3M melanoma
SR leukemia = test system: SR leukemia
COLO 205 colon = test system: COLO 205 colon
SK-MEL-28 melanoma = test system: SK-MEL-28 melanoma
SF-268 CNS = test system: SF-268 CNS
TK-10 renal = test system: TK-10 renal
SK-MEL-2 melanoma = test system: SK-MEL-2 melanoma
NCI-H226 lung = test system: NCI-H226 lung
BT-549 breast = test system: BT-549 breast
MDA-MB-435 = test system: MDA-MB-435
SN12C renal = test system: SN12C renal
OVCAR-3 ovarian = test system: OVCAR-3 ovarian
T-47D breast = test system: T-47D breast
UACC-62 melanoma = test system: UACC-62 melanoma
DU-145 prostate = test system: DU-145 prostate
HT29 colon = test system: HT29 colon
HOP-92 NSCLC = test system: HOP-92 NSCLC
HL-60(TB) leukemia = test system: HL-60(TB) leukemia

For `COc1cc(-c2cc(-c3ccc(N(C)C)cc3)nc(N3CCOCC3)c2C#N)cc(OC)c1OC`, the GI50 (HCT-116 colon) was 388 nM, the TGI (HCT-116 colon) was > 100000 nM and the GI50 (OVCAR-8 ovarian) was 1270 nM. For the same molecule, the TGI (OVCAR-8 ovarian) was > 100000 nM, the GI50 (A498 renal) was 768 nM and the TGI (A498 renal) was 23700 nM. The GI50 (U251 CNS) was 1960 nM, the TGI (U251 CNS) was > 84600 nM and the GI50 (K-562 leukemia) was 961 nM. The TGI (K-562 leukemia) was > 24600 nM, the GI50 (NCI-H23 lung) was 6660 nM and the TGI (NCI-H23 lung) was > 100000 nM. The GI50 (NCI-H460 lung) was 289 nM, the TGI (NCI-H460 lung) was > 61600 nM and the GI50 (EKVX NSCLC) was 988 nM. The TGI (EKVX NSCLC) was > 100000 nM, the GI50 (NCI-H522 lung) was 286 nM and the GI50 (MDA-MB-231 breast) was 463 nM. For the same molecule, the TGI (MDA-MB-231 breast) was > 33500 nM, the GI50 (RPMI-8226 leukemia) was 67.7 nM and the TGI (RPMI-8226 leukemia) was 5080 nM. For the same molecule, the GI50 (SK-OV-3 ovarian) was 1620 nM, the TGI (SK-OV-3 ovarian) was > 100000 nM and the GI50 (OVCAR-5 ovarian) was 248 nM. For the same molecule, the TGI (OVCAR-5 ovarian) was > 100000 nM, the GI50 (SF-539 CNS) was 2220 nM and the TGI (SF-539 CNS) was > 54800 nM. It also gave a GI50 (M14 melanoma) of 322 nM, a TGI (M14 melanoma) of 1470 nM and a GI50 (NCI/ADR-RES ovarian) of 246 nM. The TGI (NCI/ADR-RES ovarian) was > 91400 nM, the GI50 (SW-620 colon) was 2020 nM and the TGI (SW-620 colon) was > 100000 nM. For the same molecule, the GI50 (PC-3 prostate) was 2060 nM, the TGI (PC-3 prostate) was > 100000 nM and the GI50 (UACC-257 melanoma) was 1180 nM. For the same molecule, the TGI (UACC-257 melanoma) was > 82900 nM, the GI50 (CCRF-CEM leukemia) was 1210 nM and the TGI (CCRF-CEM leukemia) was > 100000 nM. For the same molecule, the GI50 (CAKI-1 renal) was 333 nM, the TGI (CAKI-1 renal) was > 33800 nM and the GI50 (HCC-2998 colon) was 2530 nM. The TGI (HCC-2998 colon) was 21300 nM, the GI50 (A549 NSCLC) was 1250 nM and the TGI (A549 NSCLC) was > 100000 nM. It also gave a GI50 (IGROV1 ovarian) of 727 nM, a TGI (IGROV1 ovarian) of 70000 nM and a GI50 (LOX IMVI melanoma) of 67.6 nM. For the same molecule, the TGI (LOX IMVI melanoma) was 225 nM, the GI50 (786-0 renal) was 835 nM and the TGI (786-0 renal) was 13400 nM. For the same molecule, the GI50 (KM12 colon) was 1340 nM, the TGI (KM12 colon) was > 100000 nM and the GI50 (SNB-75 CNS) was 13300 nM. For the same molecule, the TGI (SNB-75 CNS) was > 76900 nM, the GI50 (MCF7 breast) was 1240 nM and the TGI (MCF7 breast) was > 55200 nM. For the same molecule, the GI50 (SK-MEL-5 melanoma) was 171 nM, the TGI (SK-MEL-5 melanoma) was 729 nM and the GI50 (HS 578T breast) was 22100 nM. The TGI (HS 578T breast) was > 100000 nM, the GI50 (SF-295 CNS) was 381 nM and the TGI (SF-295 CNS) was 1110 nM. For the same molecule, the GI50 (OVCAR-4 ovarian) was 21400 nM, the TGI (OVCAR-4 ovarian) was > 100000 nM and the GI50 (HOP-62 NSCLC) was 921 nM. The TGI (HOP-62 NSCLC) was 10600 nM, the GI50 (ACHN renal) was 1020 nM and the TGI (ACHN renal) was > 100000 nM. It also gave a GI50 (HCT-15 colon) of 680 nM, a TGI (HCT-15 colon) of 44100 nM and a GI50 (UO-31 renal) of 6850 nM. The TGI (UO-31 renal) was > 60800 nM, the GI50 (RXF 393 renal) was 134 nM and the TGI (RXF 393 renal) was 3850 nM. The GI50 (MOLT-4 leukemia) was 1380 nM, the TGI (MOLT-4 leukemia) was > 100000 nM and the GI50 (MALME-3M melanoma) was 1550 nM. For the same molecule, the TGI (MALME-3M melanoma) was > 49100 nM, the GI50 (SR leukemia) was 260 nM and the TGI (SR leukemia) was 4040 nM. The GI50 (COLO 205 colon) was 355 nM, the TGI (COLO 205 colon) was 24200 nM and the GI50 (SK-MEL-28 melanoma) was 433 nM. For the same molecule, the TGI (SK-MEL-28 melanoma) was 5680 nM, the GI50 (SF-268 CNS) was 3730 nM and the TGI (SF-268 CNS) was > 100000 nM. The GI50 (TK-10 renal) was 2510 nM, the TGI (TK-10 renal) was > 100000 nM and the GI50 (SK-MEL-2 melanoma) was 1140 nM. The TGI (SK-MEL-2 melanoma) was 17900 nM, the GI50 (NCI-H226 lung) was 270 nM and the TGI (NCI-H226 lung) was 995 nM. For the same molecule, the GI50 (BT-549 breast) was 471 nM, the TGI (BT-549 breast) was > 100000 nM and the GI50 (MDA-MB-435) was 843 nM. For the same molecule, the TGI (MDA-MB-435) was 13400 nM, the GI50 (SN12C renal) was 460 nM and the TGI (SN12C renal) was > 100000 nM. The GI50 (OVCAR-3 ovarian) was 12900 nM, the TGI (OVCAR-3 ovarian) was > 83200 nM and the GI50 (T-47D breast) was 529 nM. For the same molecule, the TGI (T-47D breast) was > 22500 nM, the GI50 (UACC-62 melanoma) was 628 nM and the TGI (UACC-62 melanoma) was 1710 nM. The GI50 (DU-145 prostate) was 9120 nM, the TGI (DU-145 prostate) was > 100000 nM and the GI50 (HT29 colon) was 385 nM. For the same molecule, the TGI (HT29 colon) was > 36000 nM, the GI50 (HOP-92 NSCLC) was 1420 nM and the TGI (HOP-92 NSCLC) was > 29900 nM. For the same molecule, the GI50 (HL-60(TB) leukemia) was 468 nM.
